The source made the active and inactive calls. The rule behind the calls is not given here.
How the values were obtained:
[1] = test system: PC-12; assay: Neuroprotective activity against H2O2-induced cytotoxicity in rat PC12 cells assessed as cell viability at 10 umol/L preincubated for 2 hrs followed by H2O2 addition and measured after 24 hrs by MTT assay (reference value: 18.9 +/- 2.2%); format: functional; details: for viability at 10 µM: read-out: Activity
[2] = test system: RAW264.7; assay: Inhibition of LPS-induced NO production in mouse RAW264.7 cells at 10 umol/L after 24 hrs preincubated for 30 mins followed by LPS addition measured after 24 hrs by Griess assay relative to control; format: functional
[3] = test system: PC-12; assay: Neuroprotective activity against H2O2-induced cytotoxicity in rat PC12 cells assessed as cell viability at 1 mM preincubated for 2 hrs followed by H2O2 addition and measured after 24 hrs by MTT assay (reference value: 18.9 +/- 2.2%); format: functional; details: read-out: Activity
[4] = test system: Mus musculus; assay: Cognition enhancing effect in scopolamine-induced cognitive impairment mouse model assessed as increase in time spent in target quadrant at 3 mg/kg, ig administered once in a day for 14 consecutive days followed by scopolamine challenge 1 hr post last dose by Morris water maze test; format: functional, organism-based
[5] = test system: Mus musculus; assay: Cognition enhancing effect in scopolamine-induced cognitive impairment mouse model assessed as increase in time spent in target quadrant at 6 mg/kg, ig administered once in a day for 14 consecutive days followed by scopolamine challenge 1 hr post last dose by Morris water maze test; format: functional, organism-based

Row | SMILES | inhibition at 10 µM [2] [%] | viability at 10 µM [1] [%] | other results
1 | C[C@H]1CC[C@@]2(OC1)O[C@H]1C[C@H]3[C@@H]4CC[C@@H]5C[C@@H](OC(=O)NCCN)CC[C@]5(C)[C@H]4CC[C@]3(C)[C@H]1[C@@H]2C |  |  | Activity [1]: inactive
2 | C[C@H]1CC[C@@]2(OC1)O[C@H]1C[C@H]3[C@@H]4CC[C@@H]5C[C@@H](OC(=O)NC6CCCCC6)CC[C@]5(C)[C@H]4CC[C@]3(C)[C@H]1[C@@H]2C | 4.6 | 52.2 | 
3 | C[C@H]1CC[C@@]2(OC1)O[C@H]1C[C@H]3[C@@H]4CC[C@@H]5C[C@@H](O)CC[C@]5(C)[C@H]4CC[C@]3(C)[C@H]1[C@@H]2C [SARSASAPOGENIN] |  | 3.3 | 
4 | Cc1ccc(CNC(=O)O[C@H]2CC[C@@]3(C)[C@H](CC[C@@H]4[C@@H]3CC[C@]3(C)[C@@H]5[C@H](C[C@@H]43)O[C@]3(CC[C@H](C)CO3)[C@H]5C)C2)cc1 |  | 39.3 | 
5 | CC(=O)N[C@@H](CS)C(=O)O [ACETYLCYSTEINE] |  |  | viability at 1000 µM [3]: 35.3%
6 | COc1cc2c(cc1OC)C(=O)C(CC1CCN(Cc3ccccc3)CC1)C2 (centres undefined) |  |  | Activity [4]: Active
7 | C[C@H]1CC[C@@]2(OC1)O[C@H]1C[C@H]3[C@@H]4CC[C@@H]5C[C@@H](OC(=O)N6CCNCC6)CC[C@]5(C)[C@H]4CC[C@]3(C)[C@H]1[C@@H]2C |  | 3.4 | 
8 | C[C@H]1CC[C@@]2(OC1)O[C@H]1C[C@H]3[C@@H]4CC[C@@H]5C[C@@H](OC(=O)NCc6ccccc6)CC[C@]5(C)[C@H]4CC[C@]3(C)[C@H]1[C@@H]2C | 8.9 | 49.4 | 
9 | C[C@H]1CC[C@@]2(OC1)O[C@H]1C[C@H]3[C@@H]4CC[C@@H]5C[C@@H](OC(=O)NCc6cccc(Cl)c6)CC[C@]5(C)[C@H]4CC[C@]3(C)[C@H]1[C@@H]2C | 19.3 | 40.3 | 
10 | CC(C)CNC(=O)O[C@H]1CC[C@@]2(C)[C@H](CC[C@@H]3[C@@H]2CC[C@]2(C)[C@@H]4[C@H](C[C@@H]32)O[C@]2(CC[C@H](C)CO2)[C@H]4C)C1 | 20.5 | 48.2 | Activity [5]: Active
11 | C[C@H]1CC[C@@]2(OC1)O[C@H]1C[C@H]3[C@@H]4CC[C@@H]5C[C@@H](OC(=O)NCc6ccc(O)cc6)CC[C@]5(C)[C@H]4CC[C@]3(C)[C@H]1[C@@H]2C |  | 18.9 | 
12 | C[C@H]1CC[C@@]2(OC1)O[C@H]1C[C@H]3[C@@H]4CC[C@@H]5C[C@@H](OC(=O)NN)CC[C@]5(C)[C@H]4CC[C@]3(C)[C@H]1[C@@H]2C |  | 11.2 | 
13 | COc1ccc(CNC(=O)O[C@H]2CC[C@@]3(C)[C@H](CC[C@@H]4[C@@H]3CC[C@]3(C)[C@@H]5[C@H](C[C@@H]43)O[C@]3(CC[C@H](C)CO3)[C@H]5C)C2)cc1 |  | 21.5 | 
14 | C[C@H]1CC[C@@]2(OC1)O[C@H]1C[C@H]3[C@@H]4CC[C@@H]5C[C@@H](OC(=O)NCc6ccc(Cl)cc6)CC[C@]5(C)[C@H]4CC[C@]3(C)[C@H]1[C@@H]2C | 21.4 | 49.8 | 
15 | C[C@H]1CC[C@@]2(OC1)O[C@H]1C[C@H]3[C@@H]4CC[C@@H]5C[C@@H](OC(=O)N6CCCCC6)CC[C@]5(C)[C@H]4CC[C@]3(C)[C@H]1[C@@H]2C | 28.7 | 20.1 | 
16 | C[C@H]1CC[C@@]2(OC1)O[C@H]1C[C@H]3[C@@H]4CC[C@@H]5C[C@@H](OC(=O)NC(=N)NC#N)CC[C@]5(C)[C@H]4CC[C@]3(C)[C@H]1[C@@H]2C |  | 23.5 | 
17 | C[C@H]1CC[C@@]2(OC1)O[C@H]1C[C@H]3[C@@H]4CC[C@@H]5C[C@@H](OC(=O)N6CCCC6)CC[C@]5(C)[C@H]4CC[C@]3(C)[C@H]1[C@@H]2C |  | 16.1 | 

— ChEMBL document CHEMBL4000176, “Synthesis and SAR study of novel sarsasapogenin derivatives as potent neuroprotective agents and NO production inhibitors” (2017)
